Data published in US4551479A, “Compounds with anti-convulsive properties” (Akzo N.V., priority 1983, dated 1985).
Counter-ions that a name gives are not always drawn. Like-named read-outs stand apart in the source and are kept apart here.

Key:
tonic convulsion = assay: Electroshock test (anti-convulsive properties); assay type: in vivo; details: ip, read-out: Anti-convulsive properties, Electroshock test ED200 i.p.
Excerpt: ^(1) The ED200 is the dose of the test compound (in mg/kg) which
necessitates a 100% increase of the current intensity to bring about a
tonic convulsion in 50% of the test animals.

[1] = system: Pentylenetetrazole (PTZ) cramp condition; assay: PTZ (pentylenetetrazole) test (anti-convulsive properties); assay type: in vivo; details: ip, read-out: Anti-convulsive properties, PTZ test ED50 i.p.
Excerpt: ^(2) Pentylenetetrazole (i.e. PTZ) directly activates the nerve
endings, leading to a cramp condition.

[2] = Rotarod (neurotoxicity and sedation); details: ip
[3] = Shuttle box (neurotoxicity and sedation); details: ip
benzodiazepine receptors = assay: Antagonism of anti-convulsive effect by benzodiazepine antagonist Ro 15-1788; assay type: in vivo; details: administration of Ro 15-1788

SMILES | ED200 (tonic convulsion) [mg/kg] | ED50 [1] [mg/kg] | TD50 [2] [mg/kg] | TD50 [3] [mg/kg] | Effect of benzodiazepine antagonist (Ro 15-1788) on the anti-convulsive effect (benzodiazepine receptors) | ED200 (tonic convulsion; dose necessitating a 100% increase of current intensity to bring about tonic convulsion in 50% of test animals) [mg/kg] | ED50 ([1]; pentylenetetrazole) [mg/kg]
CN(C)C1C2C=CCC1c1ccccc1C2 (stereo not drawn) | 11 | 10 | 70 | > 46 | – | – | –
CN1C(=O)CN=C(c2ccccc2)c2cc(Cl)ccc21 [diazepam] | 14 | 0.5 | – | – | completely counteracted | – | –
O=C1NC(=O)C(c2ccccc2)(c2ccccc2)N1 [diphenyl hydantoin] | – | – | 100 | 100 | – | 15 | 22
CCCC(CCC)C(=O)O [sodium salt of valproic acid] | 180 | 30 | 230 | 350 | – | – | –
